Assay results reported in patent US7812022B2 (GlaxoSmithKline LLC, priority 2004, dated 2010).
Where two headings read alike, the source gives them in different places.

How the values were obtained:
ErbB2 or EGFR = target: T1, ErbB2 or EGFR; experiment: ErbB family substrate phosphorylation enzyme assay (HTRF), Method A or Method B; type: biochemical
T1 construct: enzymes purified from a baculovirus expression system; Reagent production was conducted essentially as described in Brignola, P. S., et al, (2002) J. Biol. Chem. 277(2): 1576-1585
Summary of the method: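 Baculovirus-expressed EGFR or ErbB2 (0.8 or 10 nM in enzyme mix) phosphorylates biotinylated Peptide C with 20 µM ATP and 0.8 µM peptide (substrate-mix levels), MnCl2, pH 7.5. Reaction ran 90 min at 20 °C with EDTA stop and HTRF anti-phosphotyrosine read. Method A: enzyme added last; Method B: 1 h enzyme–compound preincubation.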

[1] = test system: BT474 and HN5 tumor cell lines; experiment: Methylene blue growth inhibition assay (cellular Method A); type: cell-based, Human; conditions: 3 days, read-out: Activity (Method): growth inhibition IC50 class
Summary of the method: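 Growth inhibition measured by methylene blue staining of biomass (OD 620) after 3 days' compound exposure at 37° C, final DMSO 0.3%. Cell lines: BT474 (10,000/well), HN5 (3,000/well) and Colo205, all in DMEM with 10% FBS; IC50 fitted by nonlinear regression against vehicle-treated wells.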

Colo205 tumor cell lines = experiment: Methylene blue growth inhibition assay (cellular Method A), Colo205; type: cell-based, Human; conditions: 3 days, read-out: Activity (Method): growth inhibition IC50 class
Method: Human breast (BT474) and head and neck (HN5) were cultured in low glucose DMEM (Life Technologies 12320-032) containing 10% fetal bovine serum (FBS). Human colon tumor cells (Colo205) were cultured in DMEM (Invitrogen, 10564) containing 10% FBS. The SV40 transformed human mammary epithelial cell line HB4a was transfected with either human H-ras cDNA (HB4a r4.2) or the human c-ErbB2 cDNA (HB4a c5.2). The HB4a clones were cultured in RPMI containing 10% FBS, insulin (5 g/mL), hydrocortisone (5 g/mL), supplemented with the selection agent hygromycin B (50 g/mL). All lines were grown in a humidified incubator at 37° C. in 95% air, 5% CO2. Cells were harvested using trypsin/EDTA, counted using a haemocytometer, and plated in 100 microliters of the appropriate media, at the following densities, in a 96-well tissue culture plate (Falcon 3075): BT474 10,000 cells/well, HN5 3,000 cells/well. The next day, compounds were diluted in DMEM containing […] gentamicin, at twice the final required concentration, from 10 mM stock solutions in DMSO. 100 microliters/well of these dilutions were added to the 100 microliters of media currently on the cell plates. Medium containing 0.6% DMSO was added to control wells. Compounds diluted in DMEM were added to all cell lines. The final concentration of DMSO in all wells was 0.3%. Cells were returned to the incubator (37° C., 10% CO2) for 3 days. Medium was then removed by aspiration. Cell biomass was estimated by staining cells with 90 microliters per well methylene blue (Sigma M9140, 0.5% in 1:1 ethanol:water), and incubation at rt for at least 30 minutes. Stain was removed, and the plates rinsed by immersion in deionized water and air-dried. To release stain from the cells 100 microliters of solubilization solution was added (1% N-lauroyl sarcosine, Sodium salt, Sigma L5125, in PBS), and plates were shaken gently for about 30 minutes. Optical density at 620 nm was measured on a microplate reader. Percent inhibition of cell growth was calculated relative to vehicle treated control wells. Concentration of compound that inhibits 50% of control cell growth (IC50) was interpolated using nonlinear regression (Levenberg-Marquardt) and the equation, y=Vmax*(1−(x/(K+x)))+Y2, where “K” was equal to the IC50. Method B: Celltiter Glo® Growth Inhibition Assays

[2] = Method B: enzyme mix pre-incubated with compound 1 hour at 20° C., started with substrate mix
[3] = Method A: substrate mix added first, reaction started with enzyme mix

Row | Compound | IC50 ([1]; Homo sapiens, BT-474, 72 h) [nM] | IC50 (Colo205 tumor cell lines; Homo sapiens, COLO 205, 72 h) [nM] | IC50 [1] [nM] | IC50 (Colo205 tumor cell lines) [nM] | Activity (Method): pIC50 class against ErbB2 or EGFR (ErbB2 or EGFR; [2]) | Activity (Method): pIC50 class against ErbB2 or EGFR (ErbB2 or EGFR; [3])
1 | CN1CCN(CCCNc2ccc(Nc3nccc(-c4c(-c5cccc(NC(=O)c6c(F)cccc6F)c5)nn5ccccc45)n3)cc2F)CC1 [Example 42, 2,6-Difluoro-N-[3-(3-{2-[(3-fluoro-4-{[3-(4-methyl-1-piperazinyl)propyl]amino}phenyl)amino]-4-pyrimidinyl}pyrazolo[1,5-a]pyridin-2-yl)phenyl]benzamide] | < 100 | > 1000 | – | – | +++ (B) (at least one pIC50 measurement of greater than 7 against either ErbB2 or EGFR) | –
2 | O=C(Nc1cccc(-c2nn3ccccc3c2-c2ccnc(Nc3ccc4c(c3)OCCO4)n2)c1)c1ccccc1 [Example 4, N-(3-{3-[2-(2,3-Dihydro-benzo[1,4]dioxin-6-ylamino)-pyrimidin-4-yl]-pyrazolo[1,5-]pyridin-2-yl}-phenyl)-benzamide] | < 100 | 100 to 1000 | – | – | – | +++ (A) (at least one pIC50 measurement of greater than 7 against either ErbB2 or EGFR)
3 | O=C(Nc1cccc(-c2nn3ccccc3c2-c2ccnc(Nc3ccc(OCCN4CCCCC4)c(F)c3)n2)c1)c1c(F)cccc1F [Example 134, 2,6-Difluoro-N-[3-(3-{2-[(3-fluoro-4-{[2-(1-piperidinyl)ethyl]oxy}phenyl)amino]-4-pyrimidinyl}pyrazolo[1,5-a]pyridin-2-yl)phenyl]benzamide] | < 100 | > 1000 | – | – | – | +++ (A) (at least one pIC50 measurement of greater than 7 against either ErbB2 or EGFR)
4 | O=C(Nc1cccc(-c2nn3ccccc3c2-c2ccnc(Nc3ccc(N4CCCC4=O)cc3)n2)c1)c1cc(F)ccc1F [Example 50, 2,5-Difluoro-N-{3-[3-(2-{[4-(2-oxo-1-pyrrolidinyl)phenyl]amino}-4-pyrimidinyl)pyrazolo[1,5-a]pyridin-2-yl]phenyl}benzamide] | 100 to 1000 | > 1000 | – | – | – | +++ (A) (at least one pIC50 measurement of greater than 7 against either ErbB2 or EGFR)
5 | O=C(Nc1cccc(-c2nn3ccccc3c2-c2ccnc(Nc3cccc(S(=O)(=O)CCO)c3)n2)c1)c1c(F)cccc1F [Example 58, 2,6-Difluoro-N-(3-{3-[2-({3-[(2-hydroxyethyl)sulfonyl]-phenyl}amino)-4-pyrimidinyl]pyrazolo[1,5-a]pyridin-2-yl}phenyl)benzamide] | < 100 | > 1000 | – | – | +++ (B) (at least one pIC50 measurement of greater than 7 against either ErbB2 or EGFR) | –
6 | O=C(Nc1cccc(-c2nn3ccccc3c2-c2ccnc(Nc3ccc4c(c3)CNCC4)n2)c1)c1ccccc1 [Example 62, N-(3-{3-[2-(1,2,3,4-Tetrahydro-7-isoquinolinylamino)-4-pyrimidinyl]pyrazolo[1,5-a]pyridin-2-yl}phenyl)benzamide] | < 100 | > 1000 | – | – | +++ (B) (at least one pIC50 measurement of greater than 7 against either ErbB2 or EGFR) | –
7 | COc1cc(CS(C)(=O)=O)ccc1Nc1nccc(-c2c(-c3cccc(NC(=O)c4c(F)cccc4F)c3)nn3ccccc23)n1 [Example 122] | – | – | 100 to 1000 | 100 to 1000 | +++ (B) (at least one pIC50 measurement of greater than 7 against either ErbB2 or EGFR) | –

Continued, in another order:

Row | IC50 ([1]; Homo sapiens, BT-474, 72 h) [nM] | IC50 (Colo205 tumor cell lines; Homo sapiens, COLO 205, 72 h) [nM] | IC50 [1] [nM] | IC50 (Colo205 tumor cell lines) [nM] | Compound | Activity (Method): pIC50 class against ErbB2 or EGFR (ErbB2 or EGFR; [2]) | Activity (Method): pIC50 class against ErbB2 or EGFR (ErbB2 or EGFR; [3])
8 | > 1000 | > 1000 | – | – | O=C(Nc1ccccc1)Nc1cccc(-c2nn3ccccc3c2-c2ccnc(Nc3ccc4c(c3)OCCO4)n2)c1 [Example 1, 1-(3-{3-[2-(2,3-Dihydro-benzo[1,4]dioxin-6-ylamino)-pyrimidin-4-yl]-pyrazolo[1,5-]pyridin-2-yl}-phenyl)-3-phenyl-urea] | – | ++ (A) (at least one pIC50 measurement greater than 6 against either ErbB2 or EGFR but no measurement greater than pIC50 of 7)
9 | < 100 | 100 to 1000 | – | – | O=C(Nc1cccc(-c2nn3ccccc3c2-c2ccnc(Nc3cccc(OCCN4CCOCC4)c3)n2)c1)c1c(F)cccc1F [Example 60, 2,6-Difluoro-N-[3-(3-{2-[(3-{[2-(4-morpholinyl)ethyl]-oxy}phenyl)amino]-4-pyrimidinyl}pyrazolo[1,5-a]pyridin-2-yl)phenyl]benzamide] | +++ (B) (at least one pIC50 measurement of greater than 7 against either ErbB2 or EGFR) | –
10 | 100 to 1000 | > 1000 | – | – | COc1cccc(C(=O)Nc2cccc(-c3nn4ccccc4c3-c3ccnc(Nc4ccc5c(c4)OCCO5)n3)c2)c1 [Example 5, N-(3-{3-[2-(2,3-Dihydro-benzo[1,4]dioxin-6-ylamino)-pyrimidin-4-yl]-pyrazolo[1,5]-pyridin-2-yl}-phenyl)-3-methoxy-benzamide] | – | +++ (A) (at least one pIC50 measurement of greater than 7 against either ErbB2 or EGFR)
11 | < 100 | 100 to 1000 | – | – | CC(c1cccc(Nc2nccc(-c3c(-c4cccc(NC(=O)c5c(F)cccc5F)c4)nn4ccccc34)n2)c1)S(C)(=O)=O (racemic) [Example 117, 2,6-Difluoro-N-(3-{3-[2-({3-[1-(methylsulfonyl)ethyl]-phenyl}amino)-4-pyrimidinyl]pyrazolo[1,5-a]pyridin-2-yl}phenyl)benzamide] | – | ++ (A) (at least one pIC50 measurement greater than 6 against either ErbB2 or EGFR but no measurement greater than pIC50 of 7)
12 | < 100 | 100 to 1000 | – | – | NC1CCc2ccc(Nc3nccc(-c4c(-c5cccc(NC(=O)c6c(F)cccc6F)c5)nn5ccccc45)n3)cc2C1 (stereo not drawn) [Example 174, N-[3-(3-{2-[(7-Amino-5,6,7,8-tetrahydro-2-naphthalenyl)amino]-4-pyrimidinyl}pyrazolo[1,5-g]pyridin-2-yl)phenyl]-2,6-difluorobenzamidedifluorobenzamide] | +++ (B) (at least one pIC50 measurement of greater than 7 against either ErbB2 or EGFR) | –
13 | < 100 | 100 to 1000 | – | – | COc1ccc(Nc2nccc(-c3c(-c4cccc(NC(=O)c5c(F)cccc5F)c4)nn4ccccc34)n2)cc1Cl [Example 87, N-{3-[3-(2-{[3-Chloro-4-(methyloxy)phenyl]amino}-4-pyrimidinyl)pyrazolo[1,5-a]pyridin-2-yl]phenyl}-2,6-difluorobenzamide] | – | +++ (A) (at least one pIC50 measurement of greater than 7 against either ErbB2 or EGFR)
14 | < 100 | < 100 | – | – | CN(C)CCOc1ccc(Nc2nccc(-c3c(-c4cccc(NC(=O)c5c(F)cccc5F)c4)nn4ccccc34)n2)cc1 [Example 105, N-[3-(3-{2-[(4-{[2-(dimethylamino)ethyl]oxy}phenyl)-amino]-4-pyrimidinyl}pyrazolo[1,5-a]pyridin-2-yl)phenyl]-2,6-difluorobenzamide] | +++ (B) (at least one pIC50 measurement of greater than 7 against either ErbB2 or EGFR) | –
15 | < 100 | 100 to 1000 | – | – | O=C1COc2cc(Nc3nccc(-c4c(-c5cccc(NC(=O)c6c(F)cccc6F)c5)nn5ccccc45)n3)ccc2N1 [Example 200, 2,6-Difluoro-N-[3-(3-{2-[(3-oxo-3,4-dihydro-2H-1,4-benzoxazin-7-yl)amino]-4-pyrimidinyl}pyrazolo[1,5-a]pyridin-2-yl)phenyl]benzamide] | +++ (B) (at least one pIC50 measurement of greater than 7 against either ErbB2 or EGFR) | –
